Reference: ChEMBL document CHEMBL1201862, “PubChem BioAssay data set” (2004)
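These data come from cells grown in 96-well plates and exposed to compound for 48 hours at five concentrations. Abbreviation: GI50, concentration required for 50% inhibition of growth.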 Activity calls are given as the source filed them. Cut-off read from the data, not from the text of the source: active = GI50 up to about 1.1 µM and inactive = higher.

Key:
Experiment in all cases: growth of human tumour cells (NCI), 48 h
ACHN = system: ACHN
BT-549 = system: BT-549
CCRF-CEM = system: CCRF-CEM
COLO 205 = system: COLO 205
EKVX = system: EKVX
Hs-578T = system: Hs-578T
IGROV-1 = system: IGROV-1
MDA-MB-435 = system: MDA-MB-435
MDA-N = system: MDA-N
NCI-H23 = system: NCI-H23
NCI/ADR-RES = system: NCI/ADR-RES
OVCAR-3 = system: OVCAR-3
OVCAR-5 = system: OVCAR-5
OVCAR-8 = system: OVCAR-8
SK-OV-3 = system: SK-OV-3
T47D = system: T47D
TK-10 = system: TK-10
UO-31 = system: UO-31
HL-60 = system: HL-60

Row | SMILES | GI50 (ACHN) | GI50 (BT-549) | GI50 (CCRF-CEM) | GI50 (COLO 205) | GI50 (EKVX) | GI50 (Hs-578T) | GI50 (IGROV-1) | GI50 (MDA-MB-435) | GI50 (MDA-N) | GI50 (NCI-H23) | GI50 (NCI/ADR-RES) | GI50 (OVCAR-3) | GI50 (OVCAR-5) | GI50 (OVCAR-8) | GI50 (SK-OV-3) | GI50 (T47D) | GI50 (TK-10) | GI50 (UO-31) | GI50 (HL-60)
1 | CN(C(=O)Cc1ccccc1)n1cn[n+](CC(=O)OC(C)(C)C)c1 | > 10 µM (inactive) | > 10 µM (inactive) | > 10 µM (inactive) | > 10 µM (inactive) | > 10 µM (inactive) | > 10 µM (inactive) | > 10 µM (inactive) | > 10 µM (inactive) | > 10 µM (inactive) | > 10 µM (inactive) | > 10 µM (inactive) | > 10 µM (inactive) | > 10 µM (inactive) | > 10 µM (inactive) | > 10 µM (inactive) | > 10 µM (inactive) | > 10 µM (inactive) | > 10 µM (inactive) | 
2 | COC(=O)C1=C(C(=O)OC)SC(=C2S[C@@H]3[C@@H]4C[C@H]([C@@H]3S2)[C@H]2C(=O)OC(=O)[C@@H]42)S1 | > 100 µM (inactive) | > 100 µM (inactive) | > 100 µM (inactive) | > 100 µM (inactive) | > 100 µM (inactive) | > 100 µM (inactive) | > 100 µM (inactive) | > 100 µM (inactive) |  | > 100 µM (inactive) | > 100 µM (inactive) | > 100 µM (inactive) | > 100 µM (inactive) | > 100 µM (inactive) |  | > 100 µM (inactive) | > 100 µM (inactive) | > 100 µM (inactive) | > 100 µM (inactive)
3 | CCOC(=O)c1sc2c(c1O)c(=O)n(-c1ccccc1)c(=S)n2-c1ccccc1 | 81.1 µM (inactive) | 56.6 µM (inactive) | 32.7 µM (inactive) | > 100 µM (inactive) |  | > 100 µM (inactive) | > 100 µM (inactive) | > 100 µM (inactive) | > 100 µM (inactive) | 91.4 µM (inactive) |  | 51.1 µM (inactive) | > 100 µM (inactive) | 54.7 µM (inactive) |  | > 100 µM (inactive) | > 100 µM (inactive) | 87.3 µM (inactive) | 35.1 µM (inactive)
4 | CN1CCN(C(=O)CCC(=O)Nc2cc3c(c4ccccc24)-c2ccc4ccccc4c2C3)CC1 | 2.12 µM (inactive) | 1.35 µM (inactive) | 2.08 µM (inactive) | 1.6 µM (inactive) | 1.67 µM (inactive) | 2.63 µM (inactive) | 1.15 µM (inactive) | 1.51 µM (inactive) |  | 1.97 µM (inactive) | 2.21 µM (inactive) | 1.63 µM (inactive) | 1.67 µM (inactive) | 2.18 µM (inactive) | 1.6 µM (inactive) | 1.7 µM (inactive) | 1.73 µM (inactive) | 1.65 µM (inactive) | 2 µM (inactive)
5 | CC(C)N/C(=N\C#N)NS(=O)(=O)c1cnccc1Nc1ccc(Cl)cc1 | > 100 µM (inactive) | > 100 µM (inactive) | > 100 µM (inactive) | > 100 µM (inactive) | > 100 µM (inactive) | > 100 µM (inactive) | > 100 µM (inactive) | > 100 µM (inactive) | > 100 µM (inactive) | > 100 µM (inactive) | > 100 µM (inactive) | > 100 µM (inactive) | > 100 µM (inactive) | > 100 µM (inactive) | > 100 µM (inactive) | > 100 µM (inactive) | > 100 µM (inactive) | > 100 µM (inactive) | 
6 | CCN1CC2=C(OC(N)=C(C#N)C2c2ccc(Cl)cc2)/C(=C/c2ccc(Cl)cc2)C1 (stereo not drawn) | 15.7 µM (inactive) | 70.8 µM (inactive) | 18.3 µM (inactive) | 52.4 µM (inactive) | 39.5 µM (inactive) | 22.6 µM (inactive) | 20.8 µM (inactive) | 43.3 µM (inactive) | 35 µM (inactive) | 22.5 µM (inactive) | 27.3 µM (inactive) | 21.8 µM (inactive) | 20.1 µM (inactive) | 16.6 µM (inactive) | 18.7 µM (inactive) |  | 21 µM (inactive) | 36.4 µM (inactive) | > 100 µM (inactive)
7 | COc1cc2c(cc1OCc1ccccc1)NC(=O)[C@@H]1CCCN1C2=O | > 100 µM (inactive) | > 100 µM (inactive) | > 100 µM (inactive) | > 100 µM (inactive) | > 100 µM (inactive) | > 100 µM (inactive) | 58.9 µM (inactive) | > 100 µM (inactive) | > 100 µM (inactive) | > 100 µM (inactive) | > 100 µM (inactive) | > 100 µM (inactive) | > 100 µM (inactive) | > 100 µM (inactive) | > 100 µM (inactive) | > 100 µM (inactive) | > 100 µM (inactive) | > 100 µM (inactive) | 
8 | Cc1c(/N=N/c2ccccc2)c(C)n(C2OC(CO)C(O)C(O)C2O)c(=S)c1C#N (stereo not drawn) | 30.5 µM (inactive) | 19.9 µM (inactive) | 22.5 µM (inactive) | 42 µM (inactive) |  | 1 µM (active) | 37.7 µM (inactive) | 13.1 µM (inactive) | 19.9 µM (inactive) | 27.3 µM (inactive) | 42.4 µM (inactive) | 21.6 µM (inactive) | 15.1 µM (inactive) |  | 34 µM (inactive) | 39.2 µM (inactive) | 27 µM (inactive) | 26.2 µM (inactive) | 34.1 µM (inactive)
9 | N#Cc1c(N2CCN(c3ccc([N+](=O)[O-])cc3)CC2)[n+]([O-])c2ccc(-c3ccc([N+](=O)[O-])cc3)cc2[n+]1[O-] | > 49 µM (inactive) | > 100 µM (inactive) | 1.28 µM (inactive) | 17.9 µM (inactive) | 7.28 µM (inactive) | > 75.2 µM (inactive) | 1.69 µM (inactive) | 39.6 µM (inactive) | 31.8 µM (inactive) | > 31 µM (inactive) | 9.08 µM (inactive) | > 19.8 µM (inactive) | 30.7 µM (inactive) | 1.62 µM (inactive) | > 100 µM (inactive) | 3.58 µM (inactive) | > 56.8 µM (inactive) | 8.59 µM (inactive) | 
10 | CC(C)(C)c1cc(/C=C2/NC(=O)NC2=O)cc(C(C)(C)C)c1O | 11.8 µM (inactive) | 13.7 µM (inactive) | 11.9 µM (inactive) | 14.4 µM (inactive) | 10.9 µM (inactive) | 15.2 µM (inactive) | 16 µM (inactive) | 17.3 µM (inactive) |  | 15 µM (inactive) | 14.1 µM (inactive) | 14.2 µM (inactive) | 15.9 µM (inactive) | 16.3 µM (inactive) | 16.8 µM (inactive) | 2.91 µM (inactive) | 16.4 µM (inactive) |  | 10.8 µM (inactive)
11 | COC1(OC)CC(CO)(COc2cc(Cl)nc(N)n2)C1 | > 100 µM (inactive) | > 100 µM (inactive) | > 100 µM (inactive) | > 100 µM (inactive) | > 100 µM (inactive) | > 100 µM (inactive) | > 100 µM (inactive) | > 100 µM (inactive) | > 100 µM (inactive) | > 100 µM (inactive) | > 100 µM (inactive) | > 100 µM (inactive) | > 100 µM (inactive) | > 100 µM (inactive) | > 100 µM (inactive) | > 100 µM (inactive) | > 100 µM (inactive) | > 100 µM (inactive) | 
12 | N/C(=N\c1ccccc1Cl)c1ccccc1N | > 100 µM (inactive) | > 100 µM (inactive) | > 100 µM (inactive) | > 100 µM (inactive) | > 100 µM (inactive) | > 100 µM (inactive) | 45.8 µM (inactive) | > 100 µM (inactive) | > 100 µM (inactive) | > 100 µM (inactive) | > 100 µM (inactive) | > 100 µM (inactive) | > 100 µM (inactive) | > 100 µM (inactive) | > 100 µM (inactive) |  | > 100 µM (inactive) | > 100 µM (inactive) | > 100 µM (inactive)
13 | O=C1Nc2c(Cl)cc(Cl)cc2/C1=N/NC(=O)c1ccccc1O | 12.8 µM (inactive) | 14.5 µM (inactive) | 11.2 µM (inactive) | 22.3 µM (inactive) | 13.2 µM (inactive) | 14.8 µM (inactive) | 12.3 µM (inactive) | 13.2 µM (inactive) | 14.4 µM (inactive) | 18.2 µM (inactive) | 11.5 µM (inactive) | 11.2 µM (inactive) | 18.3 µM (inactive) | 12.3 µM (inactive) | 16.8 µM (inactive) |  | 15.2 µM (inactive) | 11.9 µM (inactive) | 15.1 µM (inactive)
14 | c1ccc2c(c1)OC(N1CCCC1)c1cnc(N3CCOCC3)nc1-2 (stereo not drawn) | 38.2 µM (inactive) | 17.1 µM (inactive) | 31.9 µM (inactive) | 51.2 µM (inactive) | 21.6 µM (inactive) | 51.1 µM (inactive) |  | 67 µM (inactive) |  | 15.8 µM (inactive) |  | 34.5 µM (inactive) | 22.5 µM (inactive) | > 100 µM (inactive) | 35.2 µM (inactive) | 3.54 µM (inactive) | 29.9 µM (inactive) | 19.3 µM (inactive) | 74.1 µM (inactive)
15 | COc1cc([C@@H]2c3cc4c(cc3[C@@H](Nc3ccc(NC(=O)c5cc(NC(=O)c6cc([N+](=O)[O-])cn6C)cn5C)cc3)[C@H]3COC(=O)[C@H]23)OCO4)cc(OC)c1O | 0.2 µM (active) | > 100 µM (inactive) | 0.154 µM (active) | 2.31 µM (inactive) | > 40.1 µM (inactive) | > 48.4 µM (inactive) | 0.216 µM (active) |  | 0.0308 µM (active) | 0.465 µM (active) | 0.573 µM (active) | > 49.4 µM (inactive) | > 61.4 µM (inactive) | 0.76 µM (active) | 11.6 µM (inactive) | 31.1 µM (inactive) | > 65.8 µM (inactive) | 5.22 µM (inactive) | 0.16 µM (active)
